pIC50: −log10 of the molar value.

Experimental findings from patent US11014898B1, “Benzothiazepine compounds and their use as bile acid modulators” (Albireo AB, priority 2020, dated 2021) are described below.

Series [1] can be described thus: Bioavailability studies (iv and oral dosing, plasma LC-MS/MS). In kind it is in vivo, mice (C57BL/6). The conditions noted are these: male, mouse, C57BL/6 mice, single oral dose of 10 mg/kg, single intravenous dose of 1 mg/kg. As to the method: Male mice (C57BL/6 or CD1) or Wistar rats of 8-9 weeks old were used. For each test compound, two groups of 3 animals each were used. One group was administered a single intravenous dose of 1 mg/kg (vehicle 100% DMSO) through the tail vein and the other group was administered a single oral dose of 10 mg/kg through gavage needle. The group that was administered an oral dose was fasted overnight. Blood samples were collected after 0.083, 0.25, 0.5, 1, 2, 4, 6, 8 and 24 hours following intravenous administration, and after 0.25, 0.5, 1, 2, 4, 6, 8 and 24 hours following oral administration. Blood samples were taken from saphenous vein. 0.2% EDTA was used as the anticoagulant. The samples were analyzed by a discovery grade bioanalytical method developed for the estimation of test compound in plasma, using an LC-MS/MS system.

Series [2] in a line: Bidirectional permeability assay (Caco-2 cells). The format is in vitro ADME. The conditions noted are these: human, Caco-2, pH 7.4, 10 μM in FaSSIF buffer, 120 minutes at 37° C.; for Papp A→B at 120 min, 10 μM: absorptive direction (A2B); for Papp B→A at 120 min, 10 μM: secretory direction (B2A). How it is done:
Caco-2 cells (Evotec) were seeded at a density of 70,000 cells/well in Millicell® 24-well cell culture insert plates and maintained in an incubator (37° C., 5% CO2, 95% RH) for 21 days with media change on alternate days.
Stock solutions (10 mM) of the test compounds, atenolol (low permeability marker), propranolol (high permeability marker) and digoxin (substrate for P-gp transport pathway) were prepared in dimethylsulfoxide (DMSO). An intermediate stock solution (1 mM) was prepared by diluting 10 μL of 10 mM master stock solution with 90 μL of neat DMSO. A working stock solution (10 μM) was prepared by diluting 50 μL of 1 mM with 4950 μL of FaSSIF buffer. Post addition of compounds to the FaSSIF, samples were subjected to sonication for 2 hours, and centrifuged at 4000 RPM for 30 minutes at 37° C. The 4 mL of resultant supernatant was directly used in the assay. The final DMSO concentration in the transport experiments was 1%.
On the day of assay, Caco-2 monolayers were washed twice with transport buffer (HBSS, pH 7.4) and pre-incubated for 30 min (37° C., 5% CO2, 95% RH) in an incubator. The electrical resistance of the monolayers was measured with a Millicell®-ERS system. Monolayers with trans-epithelial electrical resistance (TEER) values greater than 350 ohm·cm^2 were selected for the assay.
The assay was conducted in absorptive direction (A2B) and secretory (B2A) directions. Transport experiments were initiated by addition of transport assay buffer (FaSSIF buffer prepared in HBSS) consisting of compounds to the donor compartment (apical chamber A-B; basolateral chamber B-A) in duplicate (n=2) wells. Drug free HBSS buffer (pH 7.4) containing 1% bovine serum albumin (BSA) was introduced to the receiver (A-B-basolateral; B-A-Apical) compartments. The volumes of apical and basolateral compartments were 0.4 and 0.8 mL, respectively. After adding dosing solution, plates were incubated in an incubator for 120 minutes at 37° C. After 120 minutes, donor and receiver samples were collected and matrix matched (1:1, 30 μL study sample+30 μL blank buffer) with the opposite buffer. Dosing samples matrix matched (1:1, 30 μL study sample+30 μL blank buffer) with the opposite buffer. Samples were processed by adding acetonitrile containing internal standard (60 μL study sample+200 μL acetonitrile containing internal standard-Tolbutamide, 500 ng/mL). Samples were vortexed and centrifuged at 4000 rpm for 10 minutes. The obtained supernatant (100 μL) was diluted with 100 μL of water and transferred to fresh 96 well plates. The concentration of compounds in the samples was analyzed by liquid chromatography tandem mass spectrometry (LC-MS/MS) method using discovery grade bio-analytical method, as applicable.
The mean apparent permeability (Papp×10^−6 cm/sec) of the test compounds, atenolol, propranolol and digoxin were calculated as follows:
where dq/dt=rate of transport (rate of transport of compound in the receiver compartment), C0=initial concentration in the donor compartment, A=surface area of the effective filter membrane.
A general note: Caco-2 cells form a polarised layer with tight junctions and transporters.

The next series concerns the target T1, Human IBAT (Homo sapiens, UniProt Q12908).
T1 construct: expressed in transfected cells; cells kept under Puromycin selection
T1 sequence (Q12908 1-348): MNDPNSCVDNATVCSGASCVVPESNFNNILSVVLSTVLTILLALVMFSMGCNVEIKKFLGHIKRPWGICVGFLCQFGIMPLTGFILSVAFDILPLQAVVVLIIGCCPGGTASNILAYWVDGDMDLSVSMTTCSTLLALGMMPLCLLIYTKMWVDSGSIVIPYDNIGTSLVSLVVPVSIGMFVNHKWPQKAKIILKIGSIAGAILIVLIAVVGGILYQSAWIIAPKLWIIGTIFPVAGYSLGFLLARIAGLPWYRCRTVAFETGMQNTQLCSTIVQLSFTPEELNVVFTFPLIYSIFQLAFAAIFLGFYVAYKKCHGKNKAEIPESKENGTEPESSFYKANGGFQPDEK
The series can be described thus: IBAT (h) assay: 3H-taurocholic acid uptake in human IBAT-overexpressing cells. In kind it is cell-based. As to conditions: 0.25 μM 3H-taurocholic acid and 5 μM cold taurocholic acid, 20 minutes, read-out: hIBAT IC50. As to the method: 10,000 cells (Human or Mouse IBAT-overexpressing cells) were seeded in 96-wells plate (Corning CLS3809) in 200 μL MEM-alpha medium (Gibco 12571-063) supplemented with 10% FBS (Gibco 10438026) containing Puromycin (Gibco A1113803) (10 μg/mL) and incubated at 37° C. in 5% CO2 for 48 hours. After incubation, media was decanted from the wells and cells were washed two times with 300 μL of basal MEM-alpha medium (FBS-free). After decanting basal MEM-alpha medium each time, plates were tapped against paper towel to ensure maximum removal of residual media. Test inhibitor dilutions (highest test concentration being 10 μM, 3-fold serial dilution, 10 points) prepared in DMSO (Sigma D2650) were added in incubation mix (maintaining 0.2% final DMSO concentration) containing 0.25 μM 3H-taurocholic acid (ARC ART-1368) and 5 μM of cold taurocholic acid (Sigma T4009). 50 μL of incubation mix containing test inhibitors was then added to the wells (in duplicate) and the plates were incubated for 20 minutes in a CO2 incubator at 37° C. After incubation, the reaction was stopped by keeping the plates on ice water mix for 2-3 minutes and then the incubation mix was aspirated completely from the wells. The wells were washed two times with 250 μL of chilled unlabelled 1 mM taurocholic acid dissolved in HEPES (Gibco 15630080)-buffered (10 mM) HBSS (Gibco 14175079) (pH 7.4). The plates were tapped against a paper towel after every wash to ensure maximum removal of blocking buffer.
100 μL of MicroScint-20 (PerkinElmer 6013621) was added to the wells and kept overnight at room temperature before reading the plates in TopCount NXT™ Microplate Scintillation and Luminescence Counter from PerkinElmer under 3H Test protocol (set at 120 seconds reading time per well).
All test compounds were provided in powder form at room temperature. 10 mM DMSO stocks of the test compounds were prepared, aliquoted and stored at −20° C. From the 10 mM DMSO stock of the compounds, a 3-fold serial dilution in DMSO was prepared to get a total of 10 dilutions of the test compounds. 0.5 μL of this dilution in DMSO was added to 250 μL of FBS-free basal media containing 3H-taurocholic acid and cold taurocholic acid to prepare the incubation mixture.

As to `CCCCC1(CCCC)CN(c2ccc(C#N)cc2)c2cc(SC)c(OCC(=O)O)cc2S(=O)(=O)C1` [Example 5, 2-((3,3-dibutyl-5-(4-cyanophenyl)-7-(methylthio)-1,1-dioxido-2,3,4,5-tetrahydro-1,5-benzothiazepin-8-yl)oxy)acetic Acid], the bioavailability (in general, the share of a dose that reaches the circulation, judged against a reference dose that is usually intravenous) in series [1] was 6%. Also, in series [2], the Papp A→B (commonly the apparent permeability from the apical to the basolateral side of a cell layer) at 120 min, 10 μM was found to be 5.5 ×10⁻⁶ cm/s and the Papp B→A (as a rule, how fast a substance crosses the layer from the basolateral side) at 120 min, 10 μM was 14.5 ×10⁻⁶ cm/s. For the same compound, the pIC50 (commonly the negative decadic logarithm of the IC50, by convention in mol/L) on Human IBAT is 7.24.
The matching figures for `CCCCC1(CC)CN(c2ccccc2)c2cc(N(C)C)c(OCC(=O)O)cc2S(=O)(=O)C1` (single isomer, unassigned) [Example 8, 2-((3-butyl-7-(dimethylamino)-3-ethyl-1,1-dioxido-5-phenyl-2,3,4,5-tetrahydro-1,5-benzothiazepin-8-yl)oxy)acetic Acid]: 26%, 7.9 ×10⁻⁶ cm/s, 23.7 ×10⁻⁶ cm/s and 8.05.
